Results taken from PMC5308787, “Isoprenoid-phospholipid conjugates as potential therapeutic agents: Synthesis, characterization and antiproliferative studies” (PLoS ONE, 2017).

What was measured:
[1] = system: LoVo/DX (colon cancer drug resistant); test: Antiproliferative SRB assay, 72 h exposure; type: cell-based, human; details: Homo sapiens, LoVo/DX, mean ± SD of 3–5 experiments, n.a. = no activity in concentration of 5, 25, 125, 625 μM
Experimental: (§1) The biological studies were performed in vitro using human cancer cell lines: MV4-11 (human biphenotypic B myelomonocytic leukaemia), A-549 (non-small cell lung cancer), MCF-7 (breast cancer), LoVo (colon cancer), LoVo/DX (colon cancer drug resistant), HepG2 (liver cancer) and BALB/3T3 (normal mice fibroblasts). These lines were obtained from American Type Culture Collection (Rockville, Maryland, U.S.A.). The cell line is being maintained in the Institute of Immunology and Experimental Therapy, Wroclaw, Poland. All cell lines were grown at 37°C with 5% CO2 humidified atmosphere and were cultured in cultured medium according to the method described before.
(§2) Prior to usage, the compounds were dissolved in DMSO or in mixture of 99.8% ethanol and DMSO (1:1) to the concentration of 25 or 50 mM, and subsequently diluted in culture medium to reach the required concentrations (ranging from 5 to 625 μM).
(§3) Twenty-four hours prior to the addition of tested compounds, the cells were plated in 96-well plates (Sarstedt, Germany) at a density of 1 × 10^4 cells per well in 100 μL of culture medium. The assay was performed after 72 h of exposure to varying concentrations of the tested agents. The in vitro cytotoxic effect of tested agents was examined using the MTT (for MV4-11 cells) or SRB assay which were described previously. Each compound in each concentration was tested in triplicate in a single experiment, which was repeated 3–5 times.
(§4) The results of antiproliferative activity were given as IC50 values. Using this parameter we calculated also the resistance indexes (RI) dividing the IC50 values of selected compounds estimated for drug resistant cell LOVO/DX line by respective values designated for drug sensitive LoVo line. According to Harker et al. three categories of the cells could be distinguished: (a) the cells are drug-sensitive—if the ratio approaches 0–2; (b) the cells are moderately drug-resistant—if the ratio ranges from 2 to 10; (c) the cells are markedly drug-resistant—if the ratio is higher than 10.

MCF-7 (breast cancer) = test: Antiproliferative SRB assay, 72 h exposure; type: cell-based, human; details: Homo sapiens, MCF7, mean ± SD of 3–5 experiments, n.a. = no activity in concentration of 5, 25, 125, 625 μM
Experimental: as §1, §2, §3, §4

[2] = system: A-549 (non-small cell lung cancer); test: Antiproliferative SRB assay, 72 h exposure; type: cell-based, human; details: Homo sapiens, A549, mean ± SD of 3–5 experiments, n.a. = no activity in concentration of 5, 25, 125, 625 μM
Experimental: as §1, §2, §3, §4

LoVo (colon cancer) = test: Antiproliferative SRB assay, 72 h exposure; type: cell-based, human; details: LoVo; for IC50: Homo sapiens, SRB, 72 h, mean ± SD of 3–5 experiments, n.a. = no activity in concentration of 5, 25, 125, 625 μM
Experimental: as §1, §2, §3, §4

HepG2 (liver cancer) = test: Antiproliferative SRB assay, 72 h exposure; type: cell-based, human; details: Homo sapiens, HepG2, mean ± SD of 3–5 experiments, n.a. = no activity in concentration of 5, 25, 125, 625 μM
Experimental: as §1, §2, §3, §4

[3] = system: lung (A549), colon (LoVo) and liver (HepG2) cancer cell lines; test: Antiproliferative activity, range over several cancer cell lines as stated in text; type: cell-based; details: Homo sapiens, read-out: IC50 against lung (A549), colon (LoVo) and liver (HepG2) cancer cell lines
Experimental: as §1, §2
Twenty-four hours prior to the addition of tested compounds, the cells were plated in 96-well plates (Sarstedt, Germany) at a density of 1 × 10^4 cells per well in 100 μL of culture medium. […]
The results of antiproliferative activity were given as IC50 values. Using this parameter we calculated also the resistance indexes (RI) dividing the IC50 values of selected compounds estimated for drug resistant cell LOVO/DX line by respective values designated for drug sensitive LoVo line. […]

[4] = system: drug resistant LOVO/DX line vs drug sensitive LoVo line; test: Resistance index (RI): IC50 LOVO/DX divided by IC50 LoVo; type: cell-based, human; details: for able to overcome the barrier of P-gp-dependent resistance: judged from RI; for Resistance index (RI): RI = IC50 resistant line / IC50 non-resistant line, 0<RI<2 able to overcome drug resistance, 2<RI<10 moderate ability, RI>10 no influence
Description: as §4

[5] = system: MV4-11 (human biphenotypic B myelomonocytic leukaemia); test: Antiproliferative MTT assay, 72 h exposure; type: cell-based; details: Homo sapiens, MV4-11, mean ± SD of 3–5 independent experiments
Experimental: as §1, §2, §3, §4

[6] = system: BALB/3T3 (normal mice fibroblasts); test: Antiproliferative SRB assay, 72 h exposure; type: cell-based; details: Mus musculus, BALB/3T3, mean ± SD of 3–5 experiments, n.a. = no activity in concentration of 5, 25, 125, 625 μM
Experimental: as §1, §2, §3, §4

| Structure (SMILES) | IC50 [1] | IC50 (MCF-7 (breast cancer)) | IC50 [2] | IC50 (LoVo (colon cancer)) | activity against colon cancer cell line, fold lower than cisplatin (LoVo (colon cancer)) | IC50 (HepG2 (liver cancer)) | IC50 [3] | able to overcome the barrier of P-gp-dependent resistance [4] | IC50 [5] | IC50 [6] | Resistance index (RI) [4] |
| --- | --- | --- | --- | --- | --- | --- | --- | --- | --- | --- | --- |
| C=CC(C)(CC/C=C(\C)CCC=C(C)C)CC(=O)OC[C@H](COP(=O)([O-])OCC[N+](C)(C)C)OC(=O)CC(C)(C=C)CC/C=C(\C)CCC=C(C)C (stereo partly shown) [Compound 6b] | 57.6 ± 0.6 µM | 45 ± 1.4 µM | 30.4 ± 1.5 µM | 13.6 ± 0.7 µM | 5 fold | 53.6 ± 5.1 µM | 13.6 to 57.8 µM | exception | 27.8 ± 7.52 µM | 57.8 ± 1.4 µM |  |
| C=CC(C)(CCC=C(C)C)CC(=O)O[C@H](COC(=O)CCCCCCCCCCCCCCC)COP(=O)([O-])OCC[N+](C)(C)C (stereo partly drawn) [Compound 7a, (2’R)-1’-palmitoyl-2’-[(3R)-3,7-dimethyl-3-vinylocta-6-enyl]-sn-glycero-3’-phosphocholine + (2’R)-1’-palmitoyl-2’-[(3S)-3,7-dimethyl-3-vinylocta-6-enyl]-sn-glycero-3’-phosphocholine] | 154 ± 7.9 µM | 66.6 ± 4.2 µM | 72.6 ± 1.6 µM | 57.4 ± 0.7 µM |  | 159 ± 31.2 µM |  | exception | 95 ± 15.2 µM | 246 ± 13.9 µM | 1.91 |
| CCC/C=C1/C(C)(C)CCCC1(C)CC(=O)O[C@H](COC(=O)CCCCCCCCCCCCCCC)COP(=O)([O-])OCC[N+](C)(C)C (stereo partly drawn) [Compound 7c, (2’R)-1’-palmitoyl-2’-{2-[(3R,2"E)-2"-butylidene-1",3",3"-trimethyl]cyclohexyl}acetyl-sn-glycero-3’-phospocholine + (2’R)-1’-palmitoyl-2’-{2-[(3S,2"E)-2"-butylidene-1",3",3"-trimethyl]cyclohexyl}acetyl-sn-glycero-3’-phospocholine] | 111 ± 19.4 µM | 89.7 ± 11.3 µM | 75.7 ± 10.6 µM | 54.4 ± 3.2 µM |  | 134 ± 51 µM |  | exception | 65.1 ± 12.2 µM | 276 ± 25.7 µM | 1.35 |
